Experimental data reported in ChEMBL document CHEMBL1124359, “Quantitative structure-activity relationships in dihydropteroate synthase inhibition by multisubstituted sulfones. Design and synthesis of some new derivatives with improved potency” (J Med Chem, 1989).
Where “and” joins values, the source holds several entries; their conditions need not be identical. Equal entries are not always repeated.

Key:
[1] = system: Escherichia coli; assay: Inhibitory activity (Enzyme inhibition index) against dihydropteroate synthase from Escherichia coli.
[2] = system: Escherichia coli; assay: Inhibitory activity (apE=log(1/EII50)) against dihydropteroate synthase from Escherichia coli

Which EII50 [1] does the source give for `Cc1cc(O)cc(C)c1S(=O)(=O)c1ccc(N)cc1` here?
The EII50 was 0.51 and 0.25.

What about the apE [2] of the same molecule?
The apE was 0.29 and 0.59.

With `Nc1ccc(S(=O)(=O)c2c(Cl)cc(Cl)cc2Cl)cc1` as the molecule, how does the EII50 [1] read?
The EII50 was 3.31.

What about the apE [2] of the same molecule?
The apE was -0.52.

How did the EII50 [1] turn out when `COc1cc(C)cc(C)c1S(=O)(=O)c1ccc(N)cc1` was run?
Its EII50 is 3.02.

And the apE [2]?
Its apE is -0.48.

Which results are given for `Nc1ccc(S(=O)(=O)c2ccc(O)cc2Cl)cc1`?
EII50 [1]: 0.26; apE [2]: 0.59 and 0.58

`Nc1ccc(S(=O)(=O)c2ccc(O)cc2O)cc1` was tested. Which EII50 [1] did it give?
The EII50 was 0.51 and 0.71.

And the apE [2]?
Its apE is 0.29 and 0.15.

`Cc1ccc(S(=O)(=O)c2ccc(N)cc2)c(C)c1` was tested. Which EII50 [1] did it give?
The EII50 was 1.89.

And the apE [2]?
Its apE is -0.28.

`Cc1cc(O)ccc1S(=O)(=O)c1ccc(N)cc1` was tested. Which EII50 [1] did it give?
The EII50 was 0.23 and 0.34.

What about the apE [2] of the same molecule?
The apE was 0.66 and 0.47.

What does the source list for `Nc1ccc(S(=O)(=O)c2ccc(N)cc2)cc1`?
EII50 [1]: 2.64; apE [2]: -0.42

With `Nc1ccc(S(=O)(=O)c2ccc(Cl)cc2Cl)cc1` as the molecule, how does the EII50 [1] read?
Its EII50 is 2.24.

What about the apE [2] of the same molecule?
The apE was -0.35.

What does the source list for `COc1ccc(S(=O)(=O)c2ccc(N)cc2)c(OC)c1`?
EII50 [1]: 3.21; apE [2]: -0.51

How did the EII50 [1] turn out when `Nc1ccc(S(=O)(=O)c2c(O)cc(O)cc2O)cc1` was run?
Its EII50 is 1.91 and 1.46.

`COc1cc(OC)c(S(=O)(=O)c2ccc(N)cc2)c(OC)c1` was tested. Which EII50 [1] did it give?
The EII50 was 12.9.

What about the apE [2] of the same molecule?
Its apE is -1.11.

Which results are given for `COc1cc(C)c(S(=O)(=O)c2ccc(N)cc2)c(C)c1`?
EII50 [1]: 1.77; apE [2]: -0.25

For `Nc1ccc(S(=O)(=O)c2ccc([N+](=O)[O-])cc2[N+](=O)[O-])cc1`, which EII50 [1] is on record?
Its EII50 is 36.3.

And the apE [2]?
Its apE is -1.56.

Which EII50 [1] does the source give for `Cc1cc(C)c(S(=O)(=O)c2ccc(N)cc2)c(C)c1` here?
The EII50 was 1.69.

What about the apE [2] of the same molecule?
Its apE is -0.23.

Which EII50 [1] does the source give for `Nc1ccc(S(=O)(=O)c2ccc(N)cc2N)cc1` here?
Its EII50 is 1.59.

What about the apE [2] of the same molecule?
Its apE is -0.2.

What does the source list for `COc1ccc(S(=O)(=O)c2ccc(N)cc2)c(C)c1`?
EII50 [1]: 1.77; apE [2]: -0.25
